Results taken from PMC9674830, “A glutamine-based single α-helix scaffold to target globular proteins” (Nature Communications, 2022).
Like-named read-outs stand apart in the source and are kept apart here. Starred links: 1 amine or outer side, 2 acyl side, 3 side chain; linkers in the order of their positions; H or OH if unused. Positions of bridges follow the written chain, without caps; N, C: chain ends. Non-standard residues stand in square brackets, D forms with d. Residues, ends and D or L forms follow the SMILES beside them. No end group written: not given here. ξ: configuration not given here. ξαMeNle(6-ylidene) = CC(CCCC=[*:3])(N[*:1])C(=O)[*:2]

How the values were obtained:
[1] = Peptide stability in human serum; assay type: in vitro ADME; settings: for peptide in human serum over time, mean / remaining at 0.08 h, 300 μM / remaining at 0.25 h, 300 μM / remaining at 0.5 h, 300 μM / remaining at 1 h, 300 μM / remaining at 4 h, 300 μM / remaining at 6 h, 300 μM / remaining at 8 h, 300 μM / remaining at 24 h, 300 μM: SD, human serum, mean; for peptide in human serum over time, mean: in % (unit assumed); for remaining at 0.08 h, 300 μM: Time 0.08 (time unit inferred); for remaining at 0.08 h, 300 μM / remaining at 0.25 h, 300 μM / remaining at 0.5 h, 300 μM / remaining at 1 h, 300 μM / remaining at 4 h, 300 μM / remaining at 6 h, 300 μM / remaining at 8 h, 300 μM / remaining at 24 h, 300 μM: read-out: peptide in human serum over time, mean; for remaining at 0.25 h, 300 μM: Time 0.25 (time unit inferred); for remaining at 0.5 h, 300 μM: Time 0.50 (time unit inferred); for remaining at 1 h, 300 μM: Time 1.00 (time unit inferred); for remaining at 4 h, 300 μM: Time 4.00 (time unit inferred); for remaining at 6 h, 300 μM: Time 6.00 (time unit inferred); for remaining at 8 h, 300 μM: Time 8.00 (time unit inferred); for remaining at 24 h, 300 μM: Time 24.00 (time unit inferred); for half-life at 300 μM: human serum (Sigma-Aldrich), 1.5 mM peptide in 20 mM sodium phosphate pH 7.4 diluted 1:9, final 300 μM, 310 K, 24 h, methanol precipitation, HPLC peak area of intact peptide vs t = 0, three independent replicates
Description: Supplementary Figure 2 | Stability in human serum and internalization in human cells of peptides (P3-7)3 and (P3-7)3 Ctrl. a Human serum stability assay of peptides (P3-7)3, (P3-7)3 Ctrl and Angiopep-2 (sequence:
, a positive control for this assay 1), measured at increasing time points by monitoring the area of the HPLC peak corresponding to the intact peptide over the area of the same peak at t = […]
Peptide stability in human serum
1.5 mM solutions of the P(3-7)3, P(3-7)3 Ctrl and Angiopep-2 peptides were prepared as detailed above in 20 mM sodium phosphate, pH 7.4 and diluted in human serum (Sigma-Aldrich, Burlington, MA, USA) (1:9 dilution) to a final concentration of 300 μM. The incubation was performed at 310 K for 24 h, taking aliquots of 50 μL at several time points.
These samples were treated with 400 μL of methanol to precipitate the serum proteins and centrifuged for 30 min at 277 K. The supernatant was filtered and analyzed by HPLC to calculate the percentage of intact peptide in the sample. HPLC chromatograms were obtained on an Agilent 1260 Infinity II system with a PDA detector, with an Agilent Poroshell 120-EC18 (50 x 3 mm x 2.7 μm) column. The flow rate was 1 mL min-1 and acetonitrile (1% TFA) and water (1% TFA) were used as solvents, with 4 minute linear gradients from 5 % to 95 % of acetonitrile thermostated at 313 K. […]

RAP74-CTD = target: T1, RAP74-CTD (Homo sapiens, UniProt P35269); test: NMR chemical shift perturbation titration of peptides into 15N RAP74-CTD (KD); assay type: binding; settings: 298 K, pH 7.4; for KD range in words: NMR CSP titration, RAP74-CTD 50 μM; for Kd: 1H-15N BEST-TROSY CSP titration, 15N RAP74-CTD 50 μM, read-out: NMR-derived KD
T1 construct: spanning residues 450-517; His6-MBP (with TEV site) (N, cleaved yes); made in house; host or cells: E. coli Rosetta (DE3)pLysS
T1 sequence (P35269 450-517): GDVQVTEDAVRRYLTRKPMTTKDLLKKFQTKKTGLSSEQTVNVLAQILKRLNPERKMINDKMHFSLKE
Description: Recombinant samples with ^15N isotope enrichment of the C-terminal domain of subunit 1 of the general transcription regulator TFIIF (RAP74-CTD), spanning residues 450-517, were obtained as described previously. A codon-optimized synthetic gene cloned in a pDONR221 vector was obtained from GeneArt (Thermo Fisher Scientific, Waltham, MA, USA) and subcloned into a pDEST-His6MBP vector obtained from Addgene. Rosetta (DE3)pLysS competent cells (Novagen, Merck KGaA, Darmstadt, Germany) were grown in MOPS medium with ^15NH4Cl as the only nitrogen source (310 K, induction at OD600 = 0.7, 1 mM IPTG, harvesting 3 h after induction). Soluble fractions of cell lysates from sonication in lysis buffer (50 mM Tris-HCl, 1 M NaCl, 10 mM imidazole, pH 8.0) were purified by IMAC, and fractions containing the His6MBP-TEV-RAP74-CTD fusion were dialyzed at 277 K overnight against cleavage buffer (50 mM Tris-HCl, 200 mM NaCl, 0.5 mM EDTA, pH 8.0) in the presence of TEV protease (50 μg/mL). A second IMAC step was performed and the flow-through containing the RAP-CTD was loaded onto a HiTrap SP HP cation exchange column followed by a size exclusion chromatography step on a Superdex 75 GL 10/300 column equilibrated with NMR buffer (20 mM sodium phosphate, 0.1% trifluoroacetic acid, pH 7.4), both mounted in an Äkta Purifier System (GE Healthcare, Chicago, IL, USA). The sample was concentrated to 100 μM using an Amicon Ultra 15 mL centrifugal filter (Merck KGaA, Darmstadt, Germany).
Before the experiment, both the protein and the peptide were dialyzed (277 K, two dialysis steps) in the same preparation of NMR buffer (20 mM sodium phosphate, 0.1% trifluoroacetic acid, pH 7.4), using a Pur-A-Lyzer (Sigma-Aldrich, Burlington, MA, USA) and a Micro Float-A-Lyzer (Spectrum Laboratories, San Francisco, CA, USA) respectively. The chemical shift assignment of RAP74-CTD was reported previously (BMRB code 27288). Averaged ^1H and ^15N chemical shift perturbations (CSPs) were calculated as:2 ΔδAV=(Δδ1H)^2+1/5Δδ15N^2
Dissociation constants, KD, and averaged CSP amplitude, Δδmax, for δ, δstpl, γ and γstpl peptide binding to RAP74-CTD were obtained by a global fitting (nonlinear regression) of the 10% peaks with the largest averaged CSPs to the following single-site binding model (1:1 stoichiometry):3 Δδ=Δδmax([Protein]+[Peptide]+KD)−([Protein]+[Peptide]+KD)^2−4[Protein][Peptide]/2[Protein]

[2] = Time 0.00 (time unit not given)

| remaining at 0.08 h, 300 μM [1] [%] | remaining at 0.25 h, 300 μM [1] [%] | remaining at 6 h, 300 μM [1] [%] | remaining at 8 h, 300 μM [1] [%] | KD range in words (RAP74-CTD) | Kd (RAP74-CTD; lower bound) [µM] | Compound | other results |
| --- | --- | --- | --- | --- | --- | --- | --- |
|  |  |  |  | millimolar range |  | CC(C)C[C@@H]1NC(=O)[C@H](CCC(N)=O)NC(=O)C(C)(NC(=O)[C@H](CCC(=O)O)NC(=O)[C@H](CCC(N)=O)NC(=O)[C@H](C)NC(=O)[C@H](C)NC(=O)[C@H](C)NC(=O)[C@H](C)NC(=O)[C@H](CO)NC(=O)[C@H](C)NC(=O)CNC(=O)[C@@H]2CCCN2C(=O)[C@H](CCCCN)NC(=O)[C@@H](N)CCCCN)CCCC=CCCCC(C)(C(=O)N[C@@H](CC(C)C)C(=O)N[C@@H](C)C(=O)N[C@@H](CCC(N)=O)C(=O)N[C@@H](CCC(=O)O)C(=O)N[C@@H](CC(C)C)C(=O)N[C@@H](CCC(N)=O)C(=O)N[C@@H](C)C(=O)N[C@@H](C)C(=O)N[C@@H](CCC(N)=O)C(=O)N[C@@H](C)C(=O)N[C@@H](C)C(=O)N[C@@H](CCCCN)C(=O)N[C@@H](CCCCN)C(=O)N[C@@H](Cc2ccc(O)cc2)C(=O)O)NC(=O)[C@H](C)NC1=O (stereo partly drawn) [δStpl] (H-KKPGASAAAAQE[ξαMeNle(6-ylidene)]QLA[ξαMeNle(6-ylidene)]LAQELQAAQAAKKY-OH; staple 13-17; N-terminus and C-terminus assumed) |  |
| 96.4 | 97.3 | 115 | 98.4 |  |  | KKPGASAAAAQAAQAAQAAQAAQAAQAAKKY [(P3-7)3 Ctrl] | peptide in human serum over time, mean [1, 2]: 100.26; remaining at 0.5 h, 300 μM [1]: 114%; remaining at 1 h, 300 μM [1]: 115%; remaining at 4 h, 300 μM [1]: 94.5%; remaining at 24 h, 300 μM [1]: 110%; half-life at 300 μM [1]: > 24 h |
|  |  |  |  |  | > 1000 | KKPGASAAAAQEAQLAQLAQELQAAQAAKKY [δctrl] |  |
| 113 | 120 | 103 | 86.3 |  | > 1000 | KKPGASLAALQALQALQALQALQAAQAAKKY [(P3-7)3] | peptide in human serum over time, mean ([1]; Time 0.50 (time unit not given)): 137.50; peptide in human serum over time, mean ([1]; Time 1.00 (time unit not given)): 122.97; peptide in human serum over time, mean ([1]; Time 4.00 (time unit not given)): 139.36; peptide in human serum over time, mean ([1]; Time 24.00 (time unit not given)): 128.28; half-life at 300 μM [1]: > 24 h |
|  |  |  |  |  | > 1000 | SAAASSSWHTLFTAEEGQLYG [WHTLF, reference compound] |  |

The remaining lines, values behind:

| Compound | remaining at 0.08 h, 300 μM [1] [%] | remaining at 0.25 h, 300 μM [1] [%] | remaining at 6 h, 300 μM [1] [%] | remaining at 8 h, 300 μM [1] [%] | KD range in words (RAP74-CTD) | Kd (RAP74-CTD; lower bound) [µM] | other results |
| --- | --- | --- | --- | --- | --- | --- | --- |
| C[C@@H](O)[C@H](N)C(=O)N[C@@H](Cc1ccccc1)C(=O)N[C@@H](Cc1ccccc1)C(=O)N[C@@H](Cc1ccc(O)cc1)C(=O)NCC(=O)NCC(=O)N[C@@H](CO)C(=O)N[C@@H](CCCNC(=N)N)C(=O)NCC(=O)N[C@@H](CCCCN)C(=O)N[C@@H](CCCNC(=N)N)C(=O)N[C@@H](CC(N)=O)C(=O)N[C@@H](CC(N)=O)C(=O)N[C@@H](Cc1ccccc1)C(=O)N[C@@H](CCCCN)C(=O)N[C@H](C(=O)N[C@@H](CCC(=O)O)C(=O)N[C@@H](CCC(=O)O)C(=O)N[C@@H](Cc1ccc(O)cc1)C(=O)O)[C@@H](C)O [Angiopep-2, reference compound] | 52 | 72.6 | 16.7 | 18.3 |  |  | peptide in human serum over time, mean [1, 2]: 100.01; remaining at 0.5 h, 300 μM [1]: 32.2%; remaining at 1 h, 300 μM [1]: 73.3%; remaining at 4 h, 300 μM [1]: 24.9%; remaining at 24 h, 300 μM [1]: 22.5% |
| CC(C)C[C@@H]1NC(=O)[C@H](CCC(N)=O)NC(=O)C(C)(NC(=O)[C@H](Cc2c[nH]c3ccccc23)NC(=O)[C@H](CO)NC(=O)[C@H](C)NC(=O)[C@H](CO)NC(=O)[C@H](C)NC(=O)CNC(=O)[C@@H]2CCCN2C(=O)[C@H](CCCCN)NC(=O)[C@@H](N)CCCCN)CCCC=CCCCC(C)(C(=O)N[C@@H](CCC(=O)O)C(=O)N[C@@H](CCC(=O)O)C(=O)N[C@@H](CCC(N)=O)C(=O)N[C@@H](C)C(=O)N[C@@H](C)C(=O)N[C@@H](CCC(N)=O)C(=O)N[C@@H](C)C(=O)N[C@@H](C)C(=O)N[C@@H](CCCCN)C(=O)N[C@@H](CCCCN)C(=O)O)NC(=O)[C@H](Cc2ccccc2)NC1=O (stereo partly drawn) [γStpl] |  |  |  |  | mid-micromolar range |  |  |
| KKPGASASWAQLFQEEQAAQAAKK [γCtrl] |  |  |  |  |  | > 1000 |  |
| KKPGASLAALQELQLLQLLQELQAAQAAKKY [δ] |  |  |  |  |  |  | Kd (RAP74-CTD; 20 mM sodium phosphate, 0.1% TFA, global fit of 10% peaks with largest CSPs, 1:1 model, error by Monte-Carlo): 131 ± 20 µM |
| KKPGASLSWLQLFQEEQAAQAAKK [γ] |  |  |  |  | mid-micromolar range |  |  |
